Measurements published in patent publication US20060252679A1, “Preventive and/or trerapeutic drgs for itch” (priority 2002, published 2006).

Legend:
[1] = tested on: Itching Induced by Compound 48/80; assay: Effect on itching induced by Compound 48/80 (scratching behavior in mice); type: in vivo, ddY strain mice; conditions: 300 mg/kg orally one hour before Compound 48/80 (10 μg/site s.c.); for Numbers of Scratching Behavior (numbers/60 min): ten mice per group; for Suppressive rate(%) of scratching behavior induced by Compound 48/80: versus Compound 48/80-administered group
Experimental: Compound 48/80 (10 μg/site) was subcutaneously administered (a Compound 48/80-administered group) to the rostal back of ddY strain mice (4 weeks age), the mice were placed in a cage made of acrylic for the observation (7.5×7.5×15 cm) and behavior of the mice was taken by a video camera for 60 minutes in the absence of observing persons. The video camera was subjected to a playback and numbers of scratching behavior by hind limb were counted by visual observation. In a negative control group (a group to which a physiological saline was administered), a physiological saline (0.1 mL/site) was administered instead of Compound 48/80. In the compound-administered group, each compound 1 and compound 3 (300 mg/kg) was suspended in a 0.5 w/v % aqueous solution of methyl cellulose (MC) and orally administered at one hour before administration of Compound 48/80. In each of the Compound 48/80-administered group and the physiological saline-administered group, a 0.5 w/v % aqueous solution of MC was orally administered at one hour before administration of Compound 48/80 and physiological saline, respectively. The test was conducted for ten mice per group. Suppressive rate by the compound for scratching behavior induced by Compound 48/80 was calculated by the following formula.
In the formula, C and D have the following meanings.
C: numbers of scratching behavior of the Compound 48/80-administered group
D: numbers of scratching behavior of the compound-administered group Suppressive Rate (%)=[(C−D)/C]×100

[2] = tested on: Itching Induced by SPC; assay: Suppressive effect on itching induced by SPC (scratching behavior in mice); type: in vivo, ddY male mice; conditions: 300 mg/kg orally one hour before SPC (50 μg/site s.c.), counted for 60 minutes, ten mice per group
Experimental: SPC (50 μg/site) was subcutaneously administered (an SPC-administered group) to the rostal back of ddY male mice (3 to 4 weeks age), the mice were placed in a cage made of acrylic for the observation (7.5×7.5×15 cm) and behavior of the mice was taken by a video camera for 60 minutes in the absence of observing persons. The video camera was subjected to a playback and numbers of scratching behavior by hind limb were counted by visual observation. In a negative control group (a group to which a physiological saline was administered), a physiological saline (0.1 mL/site) was administered instead of SPC. In the compound-administered group, each compound 1 and compound 3 (300 mg/kg) was suspended in a 0.5 w/v % aqueous solution of methyl cellulose (MC) and orally administered at one hour before administration of SPC. In each of the SPC-administered group and the physiological saline-administered group, a 0.5 w/v % aqueous solution of MC (10 mL/kg) was orally administered at one hour before administration of SPC and physiological saline, respectively. The test was conducted for ten mice per group. Suppressive rate by the compounds for scratching behavior induced by SPC was calculated by the following formula. In the formula, A and B have the following meanings, respectively. […]

[3] = tested on: Itching in Chronic Dermatitis Model to which Hapten was Repeatedly Applied; assay: Effect on itching in chronic dermatitis model to which hapten (oxazolone) was repeatedly applied; type: in vivo, BALB/c male mice; conditions: mean ± standard error, control group 264 ± 29
Experimental: Preparation of chronic dermatitis model to which hapten was repeatedly applied was conducted according to the method by Kitagaki, et al. [Journal of Investigative Dermatology, volume 105, pages 749-755 (1995)] with some modifications.
With regard to hapten, oxazolone (manufactured by Sigma-Aldrich) was used and dissolved in acetone (manufactured by Kanto Kagaku) to prepare a 0.5 w/v % solution of oxazolone in acetone (antigen solution). The antigen solution (10 μL) was applied to the rostal back of BALB/c male mice (6 weeks age) with the hair was shaved to sensitize the mice. Starting from 7 days thereafter (day 0), the antigen solution (10 μL) was repeatedly challenged to apply at the same site until day 16 every two or three days to prepare chronic dermatitis models.
Compound 1 was suspended in a 0.5 w/v % aqueous solution of MC in a concentration of 10 and 30 mg/mL, respectively, and orally administered at a dose of 10 mL/kg at 1 hour before application of the antigen solution on the day 16. As a control group, a group to which only 0.5 w/v % aqueous solution of MC was similarly administered per os was prepared. […]
In order to adjust the mice to new environment, they were allowed to place for one hour in a cage (7.5×8×15 cm) made of acrylic for observation. […] The numbers of scraching behavior by hind limb to the applied site and around there were counted.

[4] = target: T1, GPR4 (Homo sapiens, UniProt P46093); assay: Antagonistic action on GPR4 (luciferase reporter in GPR4 assay cells); type: cell-based; conditions: 17β-estradiol 10 nmol/L, 6 hours, luciferase luminescence
T1 construct: expressed in transfected cells; host or cells: KJMGER8 (Namalwa KJM-1 human B-cell line stably expressing Gal4-ER), stably co-transfected with pAGal9-GPR4 and the CRE-luciferase reporter pACREpluc
Experimental: Cells for GPR4 assay prepared in Referential Example 5 (said assay cells express GPR4 by stimulation with 17β-estradiol) were seeded on white plates at the rate of 10^5 cells/well, and a solution where 17β-estradiol (manufactured by Sigma) was diluted with a medium so as to make 10 nmol/L in the reaction solution and test compounds were added to the plate and the mixture was incubated at 37° C. for 6 hours in a 5% CO2 incubator. After that, a Steady Glo Luciferase Assay System (manufactured by Promega) solution was added to stop the reaction and the amount of luminescence during one second was measured using a Top Count (Packard, Meriden, Conn., U.S.A.).
Activity of the each of test compounds (antagonistic action) was expressed by an inhibition rate calculated on the basis of counts per second in the presence or absence of 17β-estradiol as shown by the following formula. IC50 value was calculated from the inhibition rate by a linear approximate analysis of the Logit-Log conversion method.
In the formula, A, B and C each have the following meaning, respectively.
A: counts per second when 17β-estradiol and the test compound were added
B: counts per second when neither 17β-estradiol nor the test compound was added
C: counts per second when only 17β-estradiol was added Inhibition Rate (%)=[1−{(A−B)/(C−B)}]×100
2 μl of plasmid pAGal9-GPR4 with inducible expression of GPR4 and 2 μl of reporter plasmid pACREpluc were co-transferred into 6×10^6 cell of KJMGER8 by the above-mentioned electroporation. The transformants were suspended in 8 ml of an RPMI 1640-ITPSG medium and cultured in a CO2 incubator at 37° C. for 24 hours. After the cultivation, blasticidin S ([…]), hygromycin B (300 μg/ml) and geneticin ([…]) were added and cultivation was carried out for 14 days more, and stable transformants (called GPR4 assay cells) were obtained. The transformants were subcultured in an RPMI 1640-ITPSG medium containing blasticidin S (2.0 μg/ml), hygromycin B (300 μg/ml) and geneticin ([…]).

T1 sequence (P46093 whole entry E215Q, the tested form may be a part): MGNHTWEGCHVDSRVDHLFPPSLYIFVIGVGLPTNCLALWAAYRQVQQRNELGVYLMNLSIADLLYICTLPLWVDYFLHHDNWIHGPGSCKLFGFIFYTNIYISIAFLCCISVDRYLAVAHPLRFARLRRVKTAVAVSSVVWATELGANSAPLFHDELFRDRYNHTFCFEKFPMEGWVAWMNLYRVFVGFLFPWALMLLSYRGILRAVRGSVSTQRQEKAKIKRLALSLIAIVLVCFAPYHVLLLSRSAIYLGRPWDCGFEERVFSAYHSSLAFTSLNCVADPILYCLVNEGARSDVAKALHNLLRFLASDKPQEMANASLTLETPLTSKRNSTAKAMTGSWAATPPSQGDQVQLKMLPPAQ

Structure (SMILES)	IC50 [4]	Numbers of Scratching Behavior (numbers/60 min) [1]	Suppressive rate(%) of scratching behavior induced by Compound 48/80 [1]	Numbers of scratching behavior of the compound-administered group [2]	Numbers of Scratching Behavior for 1 Hour after Application of Hapten ([3]; 100 mg/kg orally 1 hour before antigen application on day 16)	Numbers of Scratching Behavior for 1 Hour after Application of Hapten ([3]; 300 mg/kg orally 1 hour before antigen application on day 16)
CCc1nc2c(C)cc(C)nc2n1Cc1ccc2c(c1)CCc1cc(CN3CCN(C)CC3)ccc1N2 [Compound 1, 2-(2-Ethyl-5,7-dimethyl-3H-imidazo[4,5-b]pyridin-3-ylmethyl)-8-(4-methylpiperazin-1-ylmethyl)-10,11-dihydro-5H-dibenz[b,f]azepine]	4 nM	16 numbers/60 min	54%	13	138 ± 33	2 ± 1
CCc1nc2c(C)cc(C)nc2n1Cc1ccc2c(c1)CCc1cc(CN3CCOCC3)ccc1N2 [Compound 4, 2-(2-Ethyl-5,7-dimethyl-3H-imidazo[4,5-b]pyridin-3-ylmethyl)-8-morpholinomethyl-10,11-dihydro-5H-dibenz[b,f]azepine]	5.8 nM	–	–	–	–	–
CCc1nc2c(C)cc(C)nc2n1Cc1ccc2c(c1)CCc1cc(CN3CC(C)CC(C)C3)ccc1N2 (stereo not shown) [Compound 5]	14 nM	–	–	–	–	–

The next compounds have a lower IC50 [4] than those just listed; values first:

IC50 [4]	Structure (SMILES)	Numbers of Scratching Behavior (numbers/60 min) [1]	Suppressive rate(%) of scratching behavior induced by Compound 48/80 [1]	Numbers of scratching behavior of the compound-administered group [2]	Numbers of Scratching Behavior for 1 Hour after Application of Hapten ([3]; 100 mg/kg orally 1 hour before antigen application on day 16)	Numbers of Scratching Behavior for 1 Hour after Application of Hapten ([3]; 300 mg/kg orally 1 hour before antigen application on day 16)
3.2 nM	CCc1nc2c(C)cc(C)nc2n1Cc1ccc2c(c1)CCc1cc(CN3CC=CCC3)ccc1N2 [Compound 2, 2-(2-Ethyl-5,7-dimethyl-3H-imidazo[4,5-b]pyridin-3-ylmethyl)-8-(1,2,5,6-tetrahydropyridin-1-ylmethyl)-10,11-dihydro-5H-dibenz[b,f]azepine]	–	–	–	–	–
2.3 nM	CCc1nc2c(C)cc(C)nc2n1Cc1ccc2c(c1)CCc1cc(CN3CCCC3)ccc1N2 [Compound 3, 2-(2-Ethyl-5,7-dimethyl-3H-imidazo[4,5-b]pyridin-3-ylmethyl)-8-(pyrrolidin-1-ylmethyl)-10,11-dihydro-5H-dibenz[b,f]azepine]	26 numbers/60 min	52%	18	–	–
